This is an account of results in publication PMC7906334, “The cell surface protein MUL_3720 confers binding of the skin pathogen Mycobacterium ulcerans to sulfated glycans and keratin” (PLoS Neglected Tropical Diseases, 2021).

The target in test [1] is T1, MUL_3720 (Mycobacterium ulcerans, UniProt A0PU23).
T1 construct: full length aa 1-207 in pET28a, recombinant, purified; 22 kDa; the MUL_ locus tags are those of strain Agy99
In words: glycan array (fluorescence). Conditions: glycan printed on slide via spacer; 1 mM CaCl2 and 1 mM MgCl2 PBS printed for the cell arrays. It is filed as binding. The source says:
glycan array (fluorescence) on MUL_3720

Test [2] deals with T1, MUL_3720. The test is described as follows: SPR (Biacore T200). It is filed as binding. Conditions: read-out: MUL_3720; protein amine-immobilised on CM5 chip, free glycan as analyte. In general terms: Surface plasmon resonance follows binding to a sensor surface in real time, without labels.
Test [3] deals with MUL_3720 (Mycobacterium ulcerans) (UniProt A0PU23). The test is described as follows: SPR; Biacore T200; MUL_3720 immobilised on a CM5 chip at pH 4.5 (5 uL/min, 600 s), ethanolamine blank flow cell as control; keratin extract flowed between 2 nM and 20 uM; double reference subtracted.

In the case of “6-O-Su-Galβ1-3GlcNAcβ-sp3 [compound 161]”, the “fold change in fluorescence binding signal” value (“fold change” for short) in test [1] is listed as 2.49±0.26 fold.
In the case of “4,6-O-Su2-GalNAcβ1-4-(3-O-Ac)GlcNAcβ-sp3 [compound 199]”, in test [1], the “fold change” value was 2.45±0.87 fold.
Still for that read-out and setting: the result for “3,6-O-Su2-Galβ1-4(6-O-Su)GlcNAcβ-sp2 [compound 189]” reads 2.46±0.56 fold; that for “3,6-O-Su2-Galβ1-4GlcNAcβ-sp2 [compound 182]”, 3.29±1.77 fold; that for “6-O-Su-Galβ1-3(6-O-Su)GlcNAcβ-sp2 [compound 179]”, 1.48±0.33 fold.
As for “6-O-Su-Galβ1-3GalNAcα-sp3 [compound 151]”, the “fold change” value in test [1] is 2.44±0.88 fold.
Take `CC(=O)N[C@H]1C(O)O[C@H](CO)[C@@H](O[C@@H]2O[C@@H](C)[C@@H](O)[C@@H](O)[C@@H]2O)[C@@H]1O[C@@H]1O[C@H](CO)[C@H](O)[C@H](OS(=O)(=O)O)[C@H]1O[C@@H]1O[C@@H](C)[C@@H](O)[C@@H](O)[C@@H]1O` (stereo partly shown) [Fucα1-2(3-O-Su)Galβ1-3(Fucα1–4)GlcNAc]: the Kd in test [2] is 17400 ± 1900 nM.
On to `CC(=O)N[C@H]1C(O)O[C@H](COS(=O)(=O)O)[C@H](O)[C@@H]1O[C@@H]1OC(C(=O)O)=C[C@H](O)[C@H]1O` (stereo partly drawn) [chondroitin 6S-disaccharide ΔUAα 1-3GalNAc-6S], for which, in test [2], the Kd is 99.2 ± 35 nM.
On to `CC(=O)N[C@H]1[C@H](OCCCN)O[C@H](CO)[C@@H](O[C@@H]2O[C@H](CO)[C@H](OS(=O)(=O)O)[C@H](OS(=O)(=O)O)[C@H]2O)[C@@H]1O` [compound 201, 3,4-O-Su2-Galβ1-4GlcNAcβ-sp3], for which the “fold change” value in test [1] stood at 1.52±0.64 fold.
Consider “keratin isolated from human epidermis (mixed keratins with average molecular weight of 64.1 kDa)”, for which the Kd in test [3] was found to be 4.78 nM.
